Data published in PubChem BioAssay AID1919005 (Molecular Pharmacology Branch, DTP, NCI, 2023).
pIC50: −log10 of the molar value.

Tested on: 855422-203-R-J1-PDC complex spheroid growth
Experiment: Anticancer human tumor 855422-203-R-J1-PDC patient-derived bladder carcinoma cell line growth inhibition [AhR]
Settings: for pIC50: curve of first compound; for viability, T/C: stronger effect = lower value
Excerpt: Multicellular complex tumor spheroid response to aryl hydrocarbon receptor antagonists in combination with a variety of drugs and investigational agents in selected tumor cell lines
The current study was undertaken to assess response to aryl hydrocarbon receptor antagonists in combination with standard-of-care drugs and investigational agents in solid tumor complex spheroid models. Complex spheroids include a stromal component modeled by human endothelial cells (HUVEC) and fibroblasts modeled by human mesenchymal stem cells (MSCs). The concentration ranges selected for each drug and investigational agent were based upon clinically achievable concentrations if the clinical Cmax of the agent was known.
Compounds. The drugs and investigational agents: BAY 2416964 (NSC825713), GNF351 (NSC835774), CH-223191 (NSC835775), CPI-455 (NSC825282), aza-TdCyd (NSC777586), decitabine (NSC127716), belinostat (NSC758774), entinostat (NSC756642), pevonedistat (NSC761192), tazemetostat (NSC777109), talazoparib (NSC765396), olaparib (NSC753686), selinexor (NSC780203), nedisertib (M3814, NSC802822), bortezomib (NSC756655), venetoclax (NSC766270), doxorubicin (NSC123127), elimusertib (BAY189344, NSC800525), ceralasertib (AZD6738, NSC777638), TAK-243 (NSC785004), alisertib (NSC759677), etoposide (NSC141540), topotecan (NSC609699), eribulin (NSC707389), gemcitabine (NSC613327), carboplatin (NSC241240), cisplatin (NSC119875), and SN-38 (NSC673596) were obtained from the National Cancer Institute (NCI) Developmental Therapeutics Program Chemical Repository (32). The FDA-approved anticancer drug set is available from the Developmental Therapeutics Program at https://dtp.cancer.gov/organization/dscb/obtaining/available plates.htm. […] The stock solutions were prepared in dimethyl sulfoxide (DMSO, Sigma-Aldrich, St. Louis, MO, cat. D2650), except for the platinum compounds which were prepared in saline (Quality Biological, Gaithersburg, MD, cat. 114-055-101), at 800-fold the tested concentration and stored at -70 degrees C prior to their use. All drugs and investigational agents were tested over a range starting from a high concentration at or near the clinical Cmax and decreasing in half-log increments. If the clinical Cmax for an agent had not been determined, the highest concentration tested was 10 microM (Table 1).
Cell Culture. All cells were maintained in an incubator at 37 degrees C and 5% CO2 with 95% humidity. The PDC lines were cultured according to standard operating procedures established by the NCI PDMR (https://pdmr.cancer.gov). Briefly, all PDCs were thawed and cultured in Matrigel-coated flasks prepared with a working solution of 1X Ham's F-12 nutrient mix, without supplementation (Invitrogen, Waltham, MA, cat. 11765054), 100 U/mL penicillin-streptomycin (Invitrogen, cat. 15140122), and 2.5% Matrigel (Corning Inc., Corning, NY, cat. 354248) for the first three passages. All PDCs were cultured in complete DMEM/F-12 media containing advanced DMEM/F-12 (Invitrogen, cat. 12634028), 4.9% defined fetal bovine serum, heat inactivated (HyClone Laboratories Inc., Logan, UT, cat. SH30070.03HI), 389 ng/mL hydrocortisone (Sigma-Aldrich, cat. H4001), 9.7 ng/mL human EGF recombinant protein (Invitrogen, cat. PHG0313), 23.4 microg/mL adenine (Sigma-Aldrich, cat. A2786), 97.3 U/mL penicillin-streptomycin (Invitrogen, cat. 15140122), 1.9 mM L-glutamine (Invitrogen, cat. 25030081), and 9.7 microM Y-27632 dihydrochloride (Tocris Bioscience, Bristol, United Kingdom, cat. 1254). The PDCs were cultured in complete DMEM/F12 media without 10 microM Y-27632 dihydrochloride for at least two passages prior to the screen. The established cell lines NCI-H1341 and […] were cultured in DMEM/F-12, HEPES (Invitrogen, cat. 11330032), 5% defined fetal bovine serum (HyClone Laboratories Inc., cat. SH30070.03), ITS premix universal culture supplement [insulin (5 microg/mL), transferrin (5 microg/mL), and selenious acid (5 ng/mL)] […]

[1] = second compound 0.1 µM, first compound 0.0316 µM
[2] = second compound 0.1 µM, first compound 0.1 µM
[3] = second compound 0.1 µM, first compound 0.316 µM
[4] = second compound 0.1 µM, first compound 1 µM
[5] = second compound 0.1 µM, first compound 3.16 µM
[6] = second compound 0.1 µM, first compound 10 µM
[7] = second compound 0.316 µM, first compound 0.0316 µM
[8] = second compound 0.316 µM, first compound 0.1 µM
[9] = second compound 0.316 µM, first compound 0.316 µM
[10] = second compound 0.316 µM, first compound 1 µM
[11] = second compound 0.316 µM, first compound 3.16 µM
[12] = second compound 0.316 µM, first compound 10 µM
[13] = second compound 1 µM, first compound 0.0316 µM
[14] = second compound 1 µM, first compound 0.1 µM
[15] = second compound 1 µM, first compound 0.316 µM
[16] = second compound 1 µM, first compound 1 µM
[17] = second compound 1 µM, first compound 3.16 µM
[18] = second compound 1 µM, first compound 10 µM
[19] = second compound 3.16 µM, first compound 0.0316 µM
[20] = second compound 3.16 µM, first compound 0.1 µM
[21] = second compound 3.16 µM, first compound 0.316 µM
[22] = second compound 3.16 µM, first compound 1 µM
[23] = second compound 3.16 µM, first compound 3.16 µM
[24] = second compound 3.16 µM, first compound 10 µM
[25] = second compound 10 µM, first compound 0.0316 µM
[26] = second compound 10 µM, first compound 0.1 µM
[27] = second compound 10 µM, first compound 0.316 µM
[28] = second compound 10 µM, first compound 1 µM
[29] = second compound 10 µM, first compound 3.16 µM
[30] = second compound 10 µM, first compound 10 µM
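Also: spheroids exposed to agents for seven days before readout.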
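For viability, T/C in this document: percent of DMSO vehicle control luminescence viability.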

Compound | pIC50 (second compound 0.1 µM) | pIC50 (second compound 0.316 µM) | pIC50 (second compound 1 µM) | pIC50 (second compound 3.16 µM) | pIC50 (second compound 10 µM) | viability, T/C [1] [%] | viability, T/C [2] [%] | viability, T/C [3] [%] | viability, T/C [4] [%] | viability, T/C [5] [%] | viability, T/C [6] [%] | viability, T/C [7] [%] | viability, T/C [8] [%] | viability, T/C [9] [%] | viability, T/C [10] [%] | viability, T/C [11] [%] | viability, T/C [12] [%] | viability, T/C [13] [%] | viability, T/C [14] [%] | viability, T/C [15] [%] | also measured
CC1(C)CCC(CN2CCN(c3ccc(C(=O)NS(=O)(=O)c4ccc(NCC5CCOCC5)c([N+](=O)[O-])c4)c(Oc4cnc5[nH]ccc5c4)c3)CC2)=C(c2ccc(Cl)cc2)C1 + CC(CO)NC(=O)c1cc(-c2ccc(Cl)cc2)nn(-c2cnn(C)c2)c1=O | 5.21 | 5.21 | 5.20 | 5.20 | 5.23 | 104 | 100 | 110 | 97.8 | 102 | 11.8 | 97.3 | 96.9 | 109 | 100 | 109 | 12.3 | 101 | 103 | 103 | viability, T/C [16]: 109%; viability, T/C [17]: 106%; viability, T/C [18]: 13.2%; viability, T/C [19]: 104%; viability, T/C [20]: 111%; viability, T/C [21]: 108%; viability, T/C [22]: 103%; viability, T/C [23]: 105%; viability, T/C [24]: 12.3%; viability, T/C [25]: 94.8%; viability, T/C [26]: 104%; viability, T/C [27]: 88.3%; viability, T/C [28]: 101%; viability, T/C [29]: 93.9%; viability, T/C [30]: 13.7%
COc1cc(Nc2ncc3c(n2)-c2ccc(Cl)cc2C(c2c(F)cccc2OC)=NC3)ccc1C(=O)O + CC(CO)NC(=O)c1cc(-c2ccc(Cl)cc2)nn(-c2cnn(C)c2)c1=O | < 5.00 | 5.00 | < 5.00 | < 5.00 | < 5.00 | 97 | 93.6 | 66 | 57.6 | 52.2 | 46.1 | 87.1 | 107 | 66.2 | 55.2 | 48 | 48.1 | 93.5 | 104 | 66.2 | viability, T/C [16]: 61%; viability, T/C [17]: 48.1%; viability, T/C [18]: 45.9%; viability, T/C [19]: 88.9%; viability, T/C [20]: 90.6%; viability, T/C [21]: 60.2%; viability, T/C [22]: 58.5%; viability, T/C [23]: 46.4%; viability, T/C [24]: 47.2%; viability, T/C [25]: 94.7%; viability, T/C [26]: 79.9%; viability, T/C [27]: 60.8%; viability, T/C [28]: 50.6%; viability, T/C [29]: 55.5%; viability, T/C [30]: 46.3%
CC1COCCN1c1cc(C2(S(C)(=N)=O)CC2)nc(-c2ccnc3[nH]ccc23)n1 (stereo not given) + Cc1ccccc1N=Nc1ccc(NC(=O)c2ccnn2C)c(C)c1 | < 5.00 | < 5.00 | < 5.00 | < 5.00 | 5.10 | 95.5 | 95.4 | 97.4 | 99.4 | 110 | 54.9 | 105 | 99.2 | 104 | 101 | 121 | 55.4 | 102 | 98.4 | 95 | viability, T/C [16]: 106%; viability, T/C [17]: 125%; viability, T/C [18]: 60%; viability, T/C [19]: 91%; viability, T/C [20]: 91.4%; viability, T/C [21]: 92.9%; viability, T/C [22]: 102%; viability, T/C [23]: 109%; viability, T/C [24]: 50.8%; viability, T/C [25]: 83.5%; viability, T/C [26]: 79%; viability, T/C [27]: 83.6%; viability, T/C [28]: 93.3%; viability, T/C [29]: 82%; viability, T/C [30]: 41.4%
